Test results reported in patent publication US10105319B2 (Murray and Poole Enterprises Limited, priority 2013, dated 2018).

What was measured:
[1] = tested on: patients with clinically stable coronary disease; experiment: LoDoCo Trial: colchicine 0.5 mg/day added to standard secondary prevention; format: in vivo, human
Method: This study is described in PCT/AU2013/001261 and is hereby incorporated in its entirety by reference.
All outcomes were evaluated by an experienced adjudicator blinded to the treatment allocation.
Patients with a history of bypass surgery were only eligible if they had undergone bypass surgery more than 10 years before, or had angiographic evidence of graft failure or had undergone stenting since their bypass surgery. All patients signed informed consent before randomization.
The randomization sequence was computer generated, kept concealed from the investigators at all times and was managed by a research assistant who had no involvement in the evaluation or management of study patients. […] Patients who were intolerant to therapy remained in the study, and were followed in the usual manner and included in the primary intention to treat analysis.
The drug was dispensed by their usual chemist, and if requested, patients were reimbursed for the cost of these scripts. All other treatments were continued as usual.
Patient compliance with treatment and outcome data were collected at routine follow up visits and at the time of any unplanned hospital admission. An acute coronary syndrome (ACS) was defined as either (a) Acute Myocardial Infarction (AMI), as evidenced by acute ischemic chest pain associated with a rise in serum troponin above the upper limit of normal or (b) Unstable Angina (UA), as evidenced by a recent acceleration of the patient's angina unassociated with a rise in serum troponin but associated with angiographic evidence of a change in the patient's coronary anatomy. (Unstable Angina Braunwald classification types IB and IIB). The ACS was characterized as being stent-related if there was evidence of significant in-stent stenosis or acute stent thrombosis. Out of Hospital Cardiac Arrest was defined as either a sudden death as evidenced on the patient's death certificate, or a non-fatal out of hospital cardiac arrest, defined as a recovery from sudden collapse associated with documented asystole, ventricular tachycardia or ventricular fibrillation. Noncardioembolic ischemic stroke was defined as CT or MRI proven ischemic stroke adjudged by the treating neurologist as not being due to atrial fibrillation or intracranial hemorrhage.
The primary efficacy outcome was the composite, ACS, fatal or non-fatal out of hospital cardiac arrest or non-cardio-embolic ischemic stroke. Secondary outcomes were (a) individual components of the primary outcome, and (b) the components of ACS unrelated to stent disease.
The pre-specified study duration was a minimum follow up of two years in all patients. Accordingly the study was closed on May 31, 2012. During May, all living patients were contacted by phone to collect compliance and outcome data from the last date of follow-up.
Summary statistics, including mean and standard deviation were calculated for all baseline characteristics by treatment arm. All time to event outcomes were calculated in days by subtracting the date of randomization from either: (1) the date of event or death; or (2) the trial termination date for those patients not experiencing the defined event. As pre-specified, the primary efficacy analysis was based on the intention-to-treat principle. The intention-to-treat analysis included all randomized subjects and all events during the time from randomization to the trial termination. Trial termination date was fixed as May 31, 2012. A secondary pre-specified on-treatment analysis was also performed, based on patients who were both tolerant and compliant to therapy beyond the first month of randomization.
The time-to-first-event for all outcomes is presented using a Kaplan-Meier plot. […] The secondary outcomes were analysed similarly.

[2] = tested on: patients with clinically stable coronary disease; conditions: 0.5 mg/day in addition to statins; Nidorf et al., JACC 2013; cited from earlier work
[3] = tested on: patients with a first episode of acute pericarditis; conditions: at 18 months; conventional treatment plus colchicine 0.5 to 1.0 mg/day for 3 months; p=0.004; cited from earlier work
[4] = tested on: patients with a first episode of recurrent pericarditis; conditions: at 18 months; conventional treatment plus colchicine 0.5-1.0 mg/d for 6 months; cited from earlier work

## COc1cc2c(c(OC)c1OC)-c1ccc(OC)c(=O)cc1[C@@H](NC(C)=O)CC2 [colchicine, N[5,6,7,9-tetrahydro-1,2,3,10-tetratmethoxy 9-oxobenzo[a]heptalen-7-yl],(S)-acetamide]
[1]; 0.5 mg/day, 4/282
  patients with AMI (ACS unrelated to stent disease): 1.4%
[1]; 0.5 mg/day, 5/282
  patients with UA (ACS unrelated to stent disease): 1.8%
[1]; 0.5 mg/day, 9/282
  patients with an ACS unrelated to stent disease: 3.2%
[1]; 0.5 mg/day, 13/282
  patients presenting with an ACS: 4.6%
[1]; 0.5 mg/day, intention to treat, 15/282, median follow up 36 months
  patients with primary outcome (ACS, out of hospital cardiac arrest or non-cardio-embolic ischemic stroke): 5.3%
[1]; 32 of 282 randomized to treatment
  patients reporting early intolerance due to gastrointestinal side effects: 11%
[1]; colchicine group, all of non-cardiac causes, 10 in control group
  patients who died: 4 patients
[1]; treatment group vs control
  out of hospital cardiac arrest and non-cardio-embolic ischemic stroke: infrequent but were also reduced
[2]
  prevention of cardiovascular events: appeared effective
[3]
  recurrence rate: 10.7%
[4]
  recurrence rate (actuarial rate): 24.0%
